Entries after “also recorded” stand apart in the source; their conditions may differ.

Series [1] is described as follows: Small animal PET/CT static scans at different time points. Type of series: in vivo, healthy female nude mice. The settings on record: six time points 30 min to 24 h, n = 3. How it is done:
Based on the good preliminary in vitro stability results, we investigated the behavior of ^89Zr-AAZTHAG in vivo in healthy female nude mice (n = 3) by acquiring PET/CT images at six different time points (30 min, 3 h, 6 h, 9 h, 12 h, and 24 h), and mice were then sacrificed 24 h p.i. to perform a biodistribution study.
(§1) In order to study the biodistribution and the in vivo stability of the ^89Zr-AAZTHAG, 8 weeks old pathogen-free female athymic Nude-Foxn1nu/nu mice (Charles River Laboratories, Sulzfeld, Germany) (n = 3) were injected via a catheter in the tail vein with 2.9 ± 0.1 MBq of ^89Zr-AAZTHAG in 300 μL NaCl 0.9% solution, and imaged at different time points (30 min, 3 h, 6 h, 9 h, 12 h, 24 h) via PET/CT static acquisition using an Inveon Small Animal PET/CT scanner (Siemens, Knoxville, TN, USA).

The nature of series [2]: Ex vivo biodistribution (tracer accumulation in organs, γ-counter) 24 h p.i. On the set-up: species or system female athymic Nude-Foxn1nu/nu mice. The settings on record: i.v. tail vein, n = 3, ± SD. How it is done: as §1
Biodistribution studies were also performed to assess the in vivo distribution of the ^89Zr-AAZTHAG complex and evaluate its in vivo stability. After sacrifice, the mice by anesthesia, blood, and other selected organs were collected, weighed, and the activity was measured by a γ-counter. The tracer accumulation in selected organs was expressed as a percentage of injected dose per gram of tissue (%ID/g).

Series [3] is described as follows: In vitro stability of ^89Zr complexes in EDTA solution (transchelation challenge, radio-TLC / iTLC). Type of series: physicochemical. Details: dose or concentration left out as unconfirmed. As to conditions: 37 °C. How it is done:
Stability studies were performed on ^89Zr labeled AAZTHAS and AAZTHAG to test the effect of the pendant arm length on complex stability. […]
(§2) After the purification step and analysis of the radioactive complex via radio-HPLC, the stability assessment of the complex at different time points and in different solutions was carried out. ^89Zr-AAZTHAS and ^89Zr-AAZTHAG were dissolved in formulation buffer, EDTA 5 mM, and human serum in 1:5 v/v ratio and were incubated at 37 °C up to 96 h. […] At each time point the stability was evaluated by radio-iTLC (Elution solution 1) using an instant thin-layer chromatographic strip (iTLC, Agilent).

Series [4] can be described thus: In vitro stability of ^89Zr complexes in human serum (radio-TLC / iTLC). The settings on record: for % of ^89Zr complexed over total activity: human serum (HS). Format: in vitro ADME. How it is done: (§3) Stability studies were performed on ^89Zr labeled AAZTHAS and AAZTHAG to test the effect of the pendant arm length on complex stability. The stability of the two ^89Zr-complexes was investigated by radio-TLC after incubation for 72 h at 37 °C in formulation buffer, EDTA 5 mM (1000-fold excess), and human serum (HS).
as §2

A short description of series [5]: In vitro stability of ^89Zr complexes in formulation buffer (radio-TLC / iTLC). Format: physicochemical. The settings on record: formulation buffer (3 mM gentisic acid + 0.25 M NaOAc, pH 5.5), 37 °C. How it is done:
as §3, §2

Take `CN(O)C(=O)CCCC(=O)NC1(C)CN(C(=O)CCCC(=O)N(C)O)CCN(C(=O)CCCC(=O)N(C)O)C1` [^89Zr-AAZTHAG, metal not drawn]: the “Excretion route seen in PET/CT images” value in series [1] is “hepatobiliary and renal excretion”. Further, the “Signal in bones during PET acquisition (release of Zr-89)” value in series [1] was “low signal in bones”. For the same molecule, the “Radioactivity accumulated in bladder” value in series [2] (Bladder) is on record as 0.049 ± 0.010 %ID/g. The “Radioactivity accumulated in blood” value in series [2] (Blood) amounted to 0.007 ± 0.005 %ID/g. For the same molecule, the “Radioactivity accumulated in brain” value in series [2] (Brain) stood at 0.002 ± 0.001 %ID/g. For the same molecule, the “Radioactivity accumulated in femur” value in series [2] (Femur) is 0.193 ± 0.108 %ID/g. Further, the “Radioactivity accumulated in heart” value in series [2] (Heart) turned out to be 0.010 ± 0.004 %ID/g. Also, the “Radioactivity accumulated in kidney” value in series [2] (Kidney) is given as 0.575 ± 0.199 %ID/g. In series [2] (Large Intestine), the “Radioactivity accumulated in large intestine” value is reported as 0.020 ± 0.010 %ID/g. Besides, the “Radioactivity accumulated in liver” value in series [2] (Liver) came to 0.041 ± 0.010 %ID/g. In addition, the “Radioactivity accumulated in lung” value in series [2] (Lung) was determined as 0.021 ± 0.007 %ID/g. For the same molecule, in series [2] (Muscle), the “Radioactivity accumulated in muscle” value was 0.006 ± 0.002 %ID/g. In addition, the “Radioactivity accumulated in pancreas” value in series [2] (Pancreas) amounted to 0.016 ± 0.008 %ID/g. Also, the “Radioactivity accumulated in small intestine” value in series [2] (Small Intestine) is reported as 0.012 ± 0.006 %ID/g. Besides, the “Radioactivity accumulated in spleen” value in series [2] (Spleen) is recorded as 0.029 ± 0.005 %ID/g. In addition, the “Radioactivity accumulated in stomach” value in series [2] (Stomach) is on record as 0.014 ± 0.005 %ID/g. In addition, the “Radioactivity accumulated in tail” value in series [2] (Tail) was 0.040 ± 0.013 %ID/g. In addition, the “% of ^89Zr complexed over total activity” value in series [3] (Day 0) is 30.6 ± 30.3%; in series [3] (Day 1) it was 4.4 ± 3.9%; in series [3] (Day 2) it was 2.4 ± 0.1%; in series [3] (Day 3) it was 3.2 ± 2.6%; in series [4] (37 °C, Day 0), 92.0 ± 11.3%; in series [4] (37 °C, Day 1), 77.7 ± 18.6%. In addition, the “% of ^89Zr complexed over total activity” value in series [4] (37 °C, Day 2) was 76.9 ± 15.4%; in series [4] (37 °C, Day 3 (72 h)) it was 87 ± 5%; in series [4] (37 °C, Day 3 (72 h), listed as AAZTHAG), 86.4 ± 5.5%; in series [5] (Day 0), 91.5 ± 10.6%; in series [5] (Day 1) it was 83.0 ± 6.5%; in series [5] (Day 2) it was 78.1 ± 13.8%. Further, the “% of ^89Zr complexed over total activity” value in series [5] (Day 3 (72 h)) was 73 ± 5%; in series [5] (Day 3 (72 h), listed as AAZTHAG), 73.0 ± 5.2%. The “Time for which the ^89Zr-complex is stable in HS” value in series [4] (human serum) is listed as “at least 4 h”.

With `CN(O)C(=O)CCC(=O)NC1(C)CN(C(=O)CCC(=O)N(C)O)CCN(C(=O)CCC(=O)N(C)O)C1` [^89Zr-AAZTHAS, metal not drawn], the “% of ^89Zr complexed over total activity” value in series [3] (Day 0) is 15.1%; in series [3] (Day 1), 1.0%; in series [3] (Day 2), 1.6%; in series [4] (37 °C, Day 0) it was 71.0%; in series [4] (37 °C, Day 1), 76.8%; in series [4] (37 °C, Day 2), 59.2%. The “% of ^89Zr complexed over total activity” value in series [4] (37 °C, Day 3 (72 h)) is listed as 46%; in series [5] (Day 0), 71.0%; in series [5] (Day 1) it was 63.3%; in series [5] (Day 2) it was 62.3%; in series [5] (Day 3 (72 h)) it was 42%. In addition, the “Behaviour of the complex on incubation in HS (precipitation)” value in series [4] (human serum, 37 °C) is “tends to precipitate over time; also recorded: precipitates”.
